Measured values reported in patent publication US20040214893A1, “Gabapentin compositions” (priority 2003, published 2004).

Assay: pH of aqueous solution of the crystalline salt
Type: physicochemical
Settings: 14.00 mg crystalline salt in 140 microliters of water
Description: Gabapentin (0.55857 g) and ethanedisulfonic acid (0.62940 g) were transferred into a 20 mL scintillation vial. Water (1.5 mL) was added and the mixture was heated to 85 deg. C. to dissolve all of the solids. The solution was filtered through a 0.2 micron filter into a new 20 mL scintillation vial. The vial was capped and placed in the refrigerator (2-4 deg. C.) for 2 hours. The resulting crystals were collected by vacuum filtration (345.83 mg) and analyzed by PXRD. Upon analysis, the crystals were determined to be gabapentin ethanedisulfonic acid salt. A small amount of the crystalline salt (14.00 mg) was weighted into a 3 mL vial and 140 microliters of water was added. The pH of the resulting solution was determined to be 1.2. […] The salt can be characterized by any one, any two, any three, any four, any five, or any six or more of the peaks in FIG. 13 including, but not limited to, 6.0, 11.51, 15.11, 16.17, 17.31, 17.85, 19.73, 20.19, 22.21, 24.63, 26.73, and 28.47 degrees 2-theta.

Substance: gabapentin ethanedisulfonic acid salt
- pH of the resulting solution: 1.2
